Blank lines part the entries; values can stand above or below the compound they belong to.
Tests used:
[1] = target: PRC2 enzyme (Homo sapiens (Human), UniProt O75530); test: PRC2 enzyme activity, TR-FRET method; type: biochemical
Description: The TR-FRET method was used to measure the PRC2 enzyme activity. First, the enzyme was mixed with compounds at different concentrations and incubated for 30 min at room temperature. The biotin-labeled histone H3 peptide substrate and the cofactor S-adenosylmethionine (SAM) were added to initiate the enzymatic reaction. After reaction was performed at room temperature for 4 hour, Acceptor and Donor were added and incubated for half an hour. The multifunctional microplate reader EnVision (Perkin Elmer Inc.) was used to detect the fluorescence signal. Data were analyzed using GraphPad Prism 5.0 software, and IC50 values were obtained.

[2] = tested on: Pfeiffer cells; test: Pfeiffer cell growth inhibition in a long term (11 days), CellTiter-Glo; type: cell-based, Human; conditions: Homo sapiens, 264 h, 11 days, read-out: Experiment on Pfeiffer cell growth inhibition in a long term (11 days IC50)
Description: Pfeiffer cells in exponential growth phase were seeded in a 24-well plate with a cell density of 1*10E5 cells/mL. Cells were treated on the same day with the compounds at different concentrations. At day 4 and day 7 of compound treatment, fresh media and compounds were changed. After treated with the compounds for 11 days, cell viability was measured using CellTiter-Glo reagent (Promega Corporation). The data was analyzed using GraphPad Prism 5.0 software and GI50 values were obtained.

[3] = Liver microsomal stability (rat); type: in vitro ADME; conditions: for Clearance rate in vivo Clint In Vivo Extpl / Intrinsic clearance rate in vivo Clint In Vitro / Liver clearance rate Clint Hep In Vivo Extpl / Metabolic bioavailability MF %: rat liver microsomes; for half-life: rat, liver microsomes, pH 7.4, rat liver microsomes, read-out: Half life T-half
Description: (§1) 1. JANUS and temperature control device was turned on. After being initialized, the pipes were flushed until there was no air bubble in the pipes.
(§2) 2. Preparation of buffers used for the experiment
(§3) Preparation of Tris pH 7.4 buffer (0.1 M): 12.12 g of Tris was dissolved in 1000 mL of H2O, the resulting solution was adjusted to pH 7.4 with 2N HCl, aliquoted at 50 mL per tube, and stored at −20° C.
(§4) Preparation of H2O/0.1% BSA buffer: 200 μL of 25% BSA was added to 50 mL of H2O.
(§5) Preparation of VIVID stock solution: 1 mg of VIVID was dissolved in 1 mL of acetonitrile, aliquoted at 50 μL per tube, and stored at −20° C.
(§6) Preparation of MgCl2 solution (100 mM): 1.016 g of MgCl2 was dissolved in 50 mL Tris pH 7.4 buffer, and aliquoted at 1 mL per tube, and stored at −20° C.
(§7) Preparation of NADPH solution (10 mM): 355 mg of NADPH was dissolved in 42.6 mL of Tris pH 7.4 buffer, aliquoted at 1.8 mL per tube, and stored at −20° C.
(§8) Preparation of Blank control: 7.937 mL of Tris, 163 μL of RLM, 450 μL of MgCl2 solution, 450 μL of NADPH solution and 9 mL of methanol were mixed uniformly, aliquoted at 1 mL per tube, and stored at −20° C.
(§9) 3. Preparation of Compound Working Solution
(§10) Dilution step 1:10 μL of compound stock solution was added to 90 μL of DMSO=1 mM stock solution.
(§11) Dilution step 2: 2 μL of 1 mM stock solution was added to 1 mL of H2O/0.1%6 BSA buffer=[…] working solution.
(§12) Dilution step 3: 245 μL of the working solution was added to a 96-well compound plate and added with 5 μL of VIVID stock solution.
(§13) The 96-well compound plate was shaken on a shaker for 5 min.
(§14) 4. The STM in the JANUS in the computer was open to run the EXCEL file, and the JANUS program was operated and run by following the instructions in the EXCEL file.
(§15) 5. After the JANUS program was finished, acetonitrile/water 50:50 (V/V) was added to column 20 of the 384-well black plate, and blank control was added to column 21 of the 384-well black plate.
(§16) 6. the plate (420 nm-465 nm) was read on a microplate reader to determine the VIVID fluorescence intensity.
(§17) 7. After the plate was sealed, shaken and centrifuged, the sample plate was subjected to the LC/MS instrument for sample analysis.
(§18) A profile of the logarithmic value of the remaining rate of the drug in the incubation system versus the incubation time was plotted, and the slope k was obtained by linear regression. The intrinsic clearance rate in vivo (Clint, mL/min/g) value, the clearance rate in vivo (Cl, mL)/min), liver clearance (Clhep, mL/min) and metabolic bioavailability (% MF) were predicted according to the following equations: […]

[4] = Liver microsomal stability (human); type: in vitro ADME; conditions: for Clearance rate in vivo Clint In Vivo Extpl / Intrinsic clearance rate in vivo Clint In Vitro / Liver clearance rate Clint Hep In Vivo Extpl: human liver microsomes; for half-life / bioavailability: human, liver microsomes, pH 7.4, human liver microsomes; for half-life: read-out: Half life T-half; for bioavailability: read-out: Metabolic bioavailability MF %
Description: as §1, §2, §3, §4, §5, §6, §7, §8, §9, §10, §11, §12, §13, §14, §15, §16, §17, §18

[5] = Liver microsomal stability (mouse); type: in vitro ADME; conditions: for Clearance rate in vivo Clint In Vivo Extpl / Intrinsic clearance rate in vivo Clint In Vitro / Liver clearance rate Clint Hep In Vivo Extpl / Metabolic bioavailability MF %: mouse liver microsomes; for half-life: mouse, liver microsomes, pH 7.4, mouse liver microsomes, read-out: Half life T-half
[6] = tested on: Pfeiffer cells; test: Growth inhibition of Pfeiffer cells in a long term (14 days), CellTiter-Glo; type: cell-based, Human; conditions: Homo sapiens, 336 h, 14 days, read-out: Pfeiffer (14 days) IC50
Description: In a CO2 cell incubator (37° C., 5% CO2), Human diffuse large B-cell lymphoma (DLBCL) cell line, pfeiffer (obtained from ATCC, CRL-2632) were incubated with RPMI 1640 medium (Gibco, purchased from Life Technologies, 22400-089) containing 10% fetal bovine serum (Gibco, purchased from Life Technologies, 10099-141) and 1% antibiotics (penicillin and streptomycin, purchased from Life Technologies, 10378016). […] After seeding the cells, they were placed in a CO2 incubator and allowed to stand for 1 hour. In a 24-well plate containing cells, 2 μL of three-fold gradient of the compounds at 9 different concentrations or DMSO were added to each well, such that the final concentration of the compounds was 0.003-20 μM or 0.3-2000 nM, and the final concentration of DMSO was 0.2%. At day 4, day 7, and day 11 of compound treatment, the fresh medium and compounds were changed, and the cell density of the DMSO control well was diluted to 2*10E5 cells/mL. The cell dilution ratio for other compound wells was the same as that of the DMSO control well. Cell viability was determined by using CellTiter-Glo reagent (purchased from Promega Inc., G7572): cells treated with the compounds for 14 days were transferred to a white 384-well plate (OptiPlate-384, purchased from PerkinElmer, 6007299) at 40 μL/well, an equal volume of CellTiter-Glo reagent was further added. After incubating at room temperature for 10 min, the cold luminescence signal was detected with a multifunctional microplate reader EnVision (PerkinElmer) at a wavelength of 400 to 700 nm. Data were analyzed using GraphPad Prism 5.0 software, and IC50 values were obtained.

[7] = tested on: Karpas-422 cells; test: Growth inhibition of Karpas-422 cells in a long term (11 days), CellTiter-Glo; type: cell-based, Human; conditions: Homo sapiens, 264 h; Karpas-422, 11 days; read-out: Karpas-422 (11 days) IC50

Sequence of PRC2 enzyme (O75530 whole entry): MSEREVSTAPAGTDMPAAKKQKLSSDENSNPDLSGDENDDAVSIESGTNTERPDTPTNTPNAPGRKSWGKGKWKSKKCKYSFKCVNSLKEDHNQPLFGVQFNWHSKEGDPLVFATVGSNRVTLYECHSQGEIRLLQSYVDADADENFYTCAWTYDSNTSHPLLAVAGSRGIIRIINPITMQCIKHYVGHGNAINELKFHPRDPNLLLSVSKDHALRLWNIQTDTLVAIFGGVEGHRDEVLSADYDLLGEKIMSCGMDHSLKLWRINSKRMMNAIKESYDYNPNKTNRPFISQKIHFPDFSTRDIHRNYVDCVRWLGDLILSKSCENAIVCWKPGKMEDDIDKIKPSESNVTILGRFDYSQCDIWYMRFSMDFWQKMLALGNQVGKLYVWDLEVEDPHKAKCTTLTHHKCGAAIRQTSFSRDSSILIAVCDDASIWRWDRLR
Sequence of PRC2 enzyme (Q15910 whole entry partner): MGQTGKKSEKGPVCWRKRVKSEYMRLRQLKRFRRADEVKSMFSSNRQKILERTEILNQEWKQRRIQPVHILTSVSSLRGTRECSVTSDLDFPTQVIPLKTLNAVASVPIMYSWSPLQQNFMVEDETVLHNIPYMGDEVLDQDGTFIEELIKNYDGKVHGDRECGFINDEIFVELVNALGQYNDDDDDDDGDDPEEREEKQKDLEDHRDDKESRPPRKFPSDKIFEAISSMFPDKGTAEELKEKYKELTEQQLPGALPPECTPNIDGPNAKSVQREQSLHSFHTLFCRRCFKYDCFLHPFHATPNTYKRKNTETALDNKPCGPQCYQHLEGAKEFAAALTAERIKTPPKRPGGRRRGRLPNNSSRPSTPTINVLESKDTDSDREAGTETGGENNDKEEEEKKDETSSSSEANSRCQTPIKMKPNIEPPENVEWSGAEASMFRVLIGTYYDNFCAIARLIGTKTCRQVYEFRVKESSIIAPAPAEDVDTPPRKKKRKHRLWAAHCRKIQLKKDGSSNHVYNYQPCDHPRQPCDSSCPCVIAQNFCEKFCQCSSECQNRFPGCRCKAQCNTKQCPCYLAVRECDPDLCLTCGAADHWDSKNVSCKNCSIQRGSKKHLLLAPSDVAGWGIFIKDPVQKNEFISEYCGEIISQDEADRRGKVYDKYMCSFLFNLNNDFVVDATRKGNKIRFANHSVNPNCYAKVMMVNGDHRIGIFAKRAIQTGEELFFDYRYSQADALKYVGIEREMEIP
Sequence of PRC2 enzyme (Q15022 whole entry partner): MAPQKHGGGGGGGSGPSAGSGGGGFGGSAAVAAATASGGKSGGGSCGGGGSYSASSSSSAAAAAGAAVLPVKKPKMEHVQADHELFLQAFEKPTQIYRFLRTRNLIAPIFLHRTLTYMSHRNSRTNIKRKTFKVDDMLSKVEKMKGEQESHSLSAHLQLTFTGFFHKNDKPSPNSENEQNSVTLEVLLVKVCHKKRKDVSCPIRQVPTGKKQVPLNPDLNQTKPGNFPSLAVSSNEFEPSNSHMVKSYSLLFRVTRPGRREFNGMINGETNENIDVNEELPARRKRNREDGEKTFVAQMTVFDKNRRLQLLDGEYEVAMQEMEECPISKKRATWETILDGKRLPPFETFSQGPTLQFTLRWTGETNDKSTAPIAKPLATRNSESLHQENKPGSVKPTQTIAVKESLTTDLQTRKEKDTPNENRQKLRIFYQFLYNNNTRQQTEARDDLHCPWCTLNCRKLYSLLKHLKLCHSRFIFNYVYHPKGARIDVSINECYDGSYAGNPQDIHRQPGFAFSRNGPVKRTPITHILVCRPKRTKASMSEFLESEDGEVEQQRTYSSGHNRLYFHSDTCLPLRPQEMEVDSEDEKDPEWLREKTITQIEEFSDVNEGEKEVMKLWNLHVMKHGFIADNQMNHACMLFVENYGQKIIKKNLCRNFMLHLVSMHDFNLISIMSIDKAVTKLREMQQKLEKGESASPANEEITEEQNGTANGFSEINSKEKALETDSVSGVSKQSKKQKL

IC50 [1]: 543 nM
IC50 [2]: 289 nM
SMILES: O=C(CN1CCOCC1)N1CC=C(c2cnc(NCc3ccco3)n3cnnc23)CC1 [E-Y36]

IC50 [1]: < 20 nM
IC50 [2]: 4.5 nM
SMILES: O=C(c1cnco1)N1CC=C(c2cnc(NCc3c(F)ccc4c3CCO4)n3cnnc23)CC1 [E-Y41]

IC50 [1]: 4.8 nM
IC50 [6]: 1.5 nM
IC50 [2]: 3.6 nM
IC50 [7]: 10 nM
SMILES: Cc1cc(C(=O)N2CC=C(c3cnc(NCc4c(F)ccc5c4CCO5)n4cnnc34)CC2)n(C)n1 [E-Y42]

IC50 [1]: 5.4 nM
IC50 [2]: 15.9 nM
SMILES: CCNC(=O)N1CCC(c2cnc(NCc3c(F)ccc4c3CCO4)n3cnnc23)CC1 [E-Y48]

IC50 [1]: 3.3 nM
IC50 [2]: 6 nM
SMILES: CC(=O)N1CCC=C(c2cnc(NCc3c(F)ccc4c3CCO4)n3cnnc23)CC1 [SL-E13]

IC50 [1]: 4.5 nM
IC50 [6]: 3.2 nM
SMILES: O=S1(=O)CC=C(c2cnc(NCc3c(F)ccc4c3CCO4)n3cnnc23)CC1 [SL-ZYE-09]

IC50 [1]: 22.5 nM
IC50 [6]: 10 nM
SMILES: Fc1ccc2c(c1CNc1ncc(C3=CCOc4ccccc43)c3nncn13)CCO2 [SL-ZYE-28]

IC50 [1]: 23.3 nM
IC50 [6]: 4 nM
IC50 [2]: 8.1 nM
SMILES: CC1(C)CC(c2cnc(NCc3c(F)ccc4c3CCO4)n3cnnc23)=CCO1 [SL-ZYE-119]

IC50 [1]: 40.8 nM
IC50 [2]: 9 to 27 nM
SMILES: CCC(=O)N1CC=C(c2cnc(NCc3c(F)ccc4c3CCO4)n3cnnc23)CC1 [SL-ZYE-161]

The next lines start with the compound.

SMILES: O=C(CN1CCOCC1)N1CC=C(c2cnc(NCc3c(F)ccc4c3CCO4)n3cnnc23)CC1 [E-Y40]
IC50 [1]: 16.1 nM
Clearance rate in vivo Clint In Vivo Extpl [3]: 59.6 mL/min
Intrinsic clearance rate in vivo Clint In Vitro [3]: 133 mL/min/gprot
Liver clearance rate Clint Hep In Vivo Extpl [3]: 15.0 mL/min
Metabolic bioavailability MF % [3]: 25.1%
half-life [3]: 0.265 h
Clearance rate in vivo Clint In Vivo Extpl [4]: 2522 mL/min
Intrinsic clearance rate in vivo Clint In Vitro [4]: 33.0 mL/min/gprot
Liver clearance rate Clint Hep In Vivo Extpl [4]: 941 mL/min
half-life [4]: 1.06 h
bioavailability [4]: 37.3%
IC50 [2]: 5.4 nM
Clearance rate in vivo Clint In Vivo Extpl [5]: 23.2 mL/min
Intrinsic clearance rate in vivo Clint In Vitro [5]: 344 mL/min/gprot
Liver clearance rate Clint Hep In Vivo Extpl [5]: 2.66 mL/min
Metabolic bioavailability MF % [5]: 11.4%
half-life [5]: 0.102 h

SMILES: O=C(C1CCOCC1)N1CC=C(c2cnc(NCc3c(F)ccc4c3CCO4)n3cnnc23)CC1 [E-Y43]
IC50 [1]: 8.5 nM
Clearance rate in vivo Clint In Vivo Extpl [3]: 44.8 mL/min
Intrinsic clearance rate in vivo Clint In Vitro [3]: 99.6 mL/min/gprot
Liver clearance rate Clint Hep In Vivo Extpl [3]: 13.8 mL/min
Metabolic bioavailability MF % [3]: 30.9%
half-life [3]: 0.352 h
Clearance rate in vivo Clint In Vivo Extpl [4]: 1464 mL/min
Intrinsic clearance rate in vivo Clint In Vitro [4]: 19.1 mL/min/gprot
Liver clearance rate Clint Hep In Vivo Extpl [4]: 741 mL/min
half-life [4]: 1.83 h
bioavailability [4]: 50.6%
IC50 [2]: 3.3 nM
Clearance rate in vivo Clint In Vivo Extpl [5]: 10.9 mL/min
Intrinsic clearance rate in vivo Clint In Vitro [5]: 161 mL/min/gprot
Liver clearance rate Clint Hep In Vivo Extpl [5]: 2.35 mL/min
Metabolic bioavailability MF % [5]: 21.6%
half-life [5]: 0.217 h

SMILES: O=C(OCc1ccccc1)N1CC=C(c2cnc(NCc3c(F)ccc4c3CCO4)n3cnnc23)CC1 [E-Y44]
IC50 [1]: 85.8 nM
IC50 [2]: 2.3 nM

SMILES: C=CC(=O)N1CC=C(c2cnc(NCc3c(F)ccc4c3CCO4)n3cnnc23)CC1 [E-Y45]
IC50 [1]: 3.4 nM
IC50 [2]: 1.8 nM

SMILES: CC(C)(C)NC(=O)N1CCC(c2cnc(NCc3c(F)ccc4c3CCO4)n3cnnc23)CC1 [E-Y49]
IC50 [1]: 6.6 nM
IC50 [2]: 10 nM

SMILES: CC(=O)N1CCC(c2cnc(NCc3c(F)ccc4c3CCO4)n3cnnc23)CC1 [E-Y50]
IC50 [1]: 5.3 nM
Clearance rate in vivo Clint In Vivo Extpl [3]: 10.9 mL/min
Intrinsic clearance rate in vivo Clint In Vitro [3]: 24.2 mL/min/gprot
Liver clearance rate Clint Hep In Vivo Extpl [3]: 7.05 mL/min
Metabolic bioavailability MF % [3]: 64.8%
half-life [3]: 1.45 h
Clearance rate in vivo Clint In Vivo Extpl [4]: 174 mL/min
Intrinsic clearance rate in vivo Clint In Vitro [4]: 2.28 mL/min/gprot
Liver clearance rate Clint Hep In Vivo Extpl [4]: 156 mL/min
half-life [4]: 15.4 h
bioavailability [4]: 89.6%
IC50 [2]: 3.8 nM
Clearance rate in vivo Clint In Vivo Extpl [5]: 0.921 mL/min
Intrinsic clearance rate in vivo Clint In Vitro [5]: 13.6 mL/min/gprot
Liver clearance rate Clint Hep In Vivo Extpl [5]: 0.705 mL/min
Metabolic bioavailability MF % [5]: 76.5%
half-life [5]: 2.57 h

SMILES: CC1C=C(c2cnc(NCc3c(F)ccc4c3CCO4)n3cnnc23)CC(C)O1 (stereo not shown) [SL-ZYE-24]
IC50 [1]: 8.3 nM
IC50 [6]: 6 nM

SMILES: CCOC(=O)N1CC=C(c2cnc(NCc3c(F)ccc4c3CCO4)n3cnnc23)CC1 [SL-ZYE-148]
IC50 [1]: 4.7 nM
IC50 [2]: 1 to 3 nM
